Experimental data taken from patent US20260132128A1, “COMPOUND FOR RECOVERING P53 MUTATION FUNCTION AND USE THEREOF” (SHENZHEN ZHONGGE BIOLOGICAL TECHNOLOGY CO., LTD., priority 2022, published 2026).
Marks after values point to notes of the source that are not given here.

Columns and labels:
p53 Y220C [1] = biological target: T1, p53 Y220C (Homo sapiens, UniProt P04637, P309S/R273H/Y220C); experiment: DNA binding test (HTRF): binding of P53Y220C protein to DNA; type: biochemical; settings: HTRF, activation of p53 Y220C (aa 94-312) binding to biotin DNA
T1 construct: a truncated mutant containing only amino acids 94-312 of p53; made in house; host or cells: E. coli

p53 Y220C [2] = biological target: T2, p53 Y220C (Homo sapiens, UniProt P04637, Y220C); experiment: as above; type: biochemical; settings: multiple ratio of EC50 of the compound to the reference compound, DNA binding test
T2 construct: a truncated mutant containing only amino acids 94-312 of p53; made in house; host or cells: E. coli

NUGC-3 cells = experiment: NUGC-3 cell proliferation assay (CTG); type: cell-based, human; settings: for GI50: 6 days, CTG; for Compound GI50 (nM)/Reference compound GI50 (nM): multiple ratio of GI50 of the compound to the reference compound
Summary of the method: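 GI50 derived by variable-slope regression of percent inhibition (normalized to blank and 0.1% DMSO controls) from CTG luminescence. Compound was given as 10 threefold dilutions, highest final 10 μM, to overnight-seeded NUGC-3 cells (250/well) for 6 days, 37° C, 5% CO2.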

| Structure (SMILES) | EC50 (p53 Y220C [1]) [nM] | Compound EC50 (nM)/Reference compound EC50 (nM) (p53 Y220C [2]) | GI50 (NUGC-3 cells) [nM] | Compound GI50 (nM)/Reference compound GI50 (nM) (NUGC-3 cells) | GI50 (NUGC-3 cells; Homo sapiens, NUGC-3, 144 h) [nM] |
| --- | --- | --- | --- | --- | --- |
| CNC(=O)c1ccc(NCC#Cc2nc3c(NC4CCC(N5CC6(COC6)C5)CC4F)cccn3c2CC(F)(F)F)c(OC)c1 (single isomer, unassigned) [Compound 35-6j] | < 100 | C (C: EC50 of the compound≥3*EC50 of the reference compound) | < 1000 | C (C: GI50 of the compound ≥ 3 * GI50 of the reference compound) | – |
| CNC(=O)c1cc(OC)c(NCC#Cc2nc3c(N[C@H]4CC[C@H](N5CC6(COC6)C5)CC4)cccn3c2CC(F)(F)F)cc1F [Compound 27] | < 100 | B (B: EC50 of the reference compound<EC50 of the compound≤3.0*EC50 of the reference compound) | – | C (C: GI50 of the compound ≥ 3 * GI50 of the reference compound) | – |
| CNC(=O)c1ccc(NCc2nnc(-c3nc4c(NC5CCN(C)CC5)cccn4c3CC(F)(F)F)s2)c(OC)c1 [Compound 18] | 100 to 500 | C (C: EC50 of the compound≥3*EC50 of the reference compound) | – | C (C: GI50 of the compound ≥ 3 * GI50 of the reference compound) | 1000 to 5000 |
| CNC(=O)c1ccc(NCC#Cc2nc3c(NC4CCC(N(C)[C@@H]5CCOC5)CC4)cccn3c2CC(F)(F)F)c(OC)c1 (stereo partly drawn) [Compound 33] | 100 to 500 | C (C: EC50 of the compound≥3*EC50 of the reference compound) | – | C (C: GI50 of the compound ≥ 3 * GI50 of the reference compound) | – |
| CNC(=O)c1ccc(NCC#Cc2nc3c(NC4CCN(C)CC4)cccn3c2CC(F)(F)F)c(F)c1 [Compound 13] | 100 to 500 | B (B: EC50 of the reference compound<EC50 of the compound≤3.0*EC50 of the reference compound) | – | C (C: GI50 of the compound ≥ 3 * GI50 of the reference compound) | 1000 to 5000 |
| CNC(=O)c1ccc(NCC#Cc2nc3c(NC4CCC(N5CC6(COC6)C5)CC4F)cccn3c2CC(F)(F)F)c(OC)c1 (single isomer, unassigned) [Compound 35-6e] | 100 to 500 | C (C: EC50 of the compound≥3*EC50 of the reference compound) | ≥ 5000 | C (C: GI50 of the compound ≥ 3 * GI50 of the reference compound) | – |
| CNC(=O)c1ccc(NCC#Cc2nc3c(NC4CCC(N5CC6(COC6)C5)CC4F)cccn3c2CC(F)(F)F)c(OC)c1 (single isomer, unassigned) [Compound 35-6f] | < 100 | B (B: EC50 of the reference compound<EC50 of the compound≤3.0*EC50 of the reference compound) | 1000 to 5000 | C (C: GI50 of the compound ≥ 3 * GI50 of the reference compound) | – |
| COc1cc(S(C)(=N)=O)ccc1NCC#Cc1nc2c(NC3CCN(C)CC3)cccn2c1CC(F)(F)F (stereo not drawn) [Compound 15] | 100 to 500 | C (C: EC50 of the compound≥3*EC50 of the reference compound) | – | C (C: GI50 of the compound ≥ 3 * GI50 of the reference compound) | < 1000 |
